# How the values were obtained:
# [1] = cited from earlier work
# coagulation factors = settings: in vivo; cited from earlier work
# [2] = oral, versus conventional ADT, non-metastatic prostate cancer; cited from earlier work
# [3] = system: dihydrotestosterone and testosterone; test: Mouse Experiment #2: radioimmunoassay for androgen suppression by DES; format: in vivo, athymic nude mice; settings: DES i.p., 1 hour (used as baseline)
# Experimental: Six athymic nude mice (Harlan) were used for this experiment. As above, mouse 1 received a 100 μl injection of a 7.5% DES solution in DMSO, for a total dose of […]. Mice 2, 3, 4, 5, and 6 received three applications of 0%, 0.5%, 1%, 2%, and 3% DES cream at 24 h intervals. 24 h following the final cream application and 1 h post-injection, blood was taken from each mouse by cardiac puncture. Each cardiac puncture sample was combined with 0.1 ml sodium heparin (50 mg/ml; Sigma, cat #). Blood plasma was isolated from each sample by centrifugation at 4,000 rpm for 15 minutes. This yielded approximately 0.2 to 0.4 ml of plasma from each sample.
# A radioimmunoassay that detects both dihydrotestosterone and testosterone was used to assess androgen suppression by DES.
# [4] = Mouse Experiment #2: DES in mouse plasma by TSQ-ESI-MS after three cream applications or i.p. injection; format: in vivo, athymic nude mice; settings: athymic nude, ip, DES i.p. 0.75 mg, β-glucuronidase, read-out: DES Amount in plasma
# Experimental: (§1) 100 μl samples of commercial BALB/C mouse plasma containing the following concentrations of DES were used to produce a standard curve: 0, 0.01, 0.02, 0.05, 0.08, 0.1, 0.2, 0.5, 0.8, 1.0 (nanograms of DES per milliliter of mouse plasma). Each plasma standard was spiked with 10 μl of d8-DES (Isotech, cat #614289) used as an internal standard. Prior to the next step, samples taken from live mice were exposed to 5 μl of β-glucuronidase (Sigma, cat #G7017) and incubated at 37° C. for 70 minutes at 100 rpm. The enzymatic reaction was necessary in order to separate the DES molecule from any conjugated glucoronic acid that may be present. Following this incubation, 10 μl of 6M perchloric acid and 50 μl of acetonitrile were added. Each sample was then mixed for 2 minutes, following by centrifugation at 17,000×g for 5 minutes at 5° C. The supernatant was combined with 40 μl of 0.75M potassium carbonate and mixed for 30 seconds. Precipitated potassium perchlorate was removed by centrifugation at 17,000×g for 5 minutes at 5° C. The resulting supernatant was subjected to TSQ-ESI-MS. The chromatography conditions were the following: 25 μl metal loop, 10 μl no waste injection; oven 22° C.; flow rate 0.3 ml/min; solvents: A=water, C=MeOH; column: Hypersil Gold 100×2.1 mm, 5 μm bore (Thermo Scientific, catalog #25005-102130; with guard column). […]
# [5] = Mouse Experiment #1: DES in mouse plasma by TSQ-ESI-MS after i.p. injection or topical DES cream; format: in vivo; settings: ip, 0.75 mg, DES i.p. 0.75 mg, read-out: DES Amount in plasma
# Experimental: 375 mg of diethylstilbestrol (DES; Sigma, cat #D4628) was then added to 2.5 ml of the lecithin solution and combined with 10 ml of the 20% poloxamer solution. This combination was stirred overnight at room temperature. The result was a viscous 3% (g/ml) DES cream, of which 0.25 ml was applied to each mouse resulting in a topical dose of approximately 7.5 mg.
# as §1, with “C.” for “C. The resulting supernatant was subjected to TSQ-ESI-MS. The chromatography conditions were the following: 25 μl metal loop, 10 μl no waste injection; oven 22° C.; flow rate 0.3 ml/min; solvents: A=water, C=MeOH; column: Hypersil Gold 100×2.1 mm, 5 μm bore (Thermo Scientific, catalog #25005-102130; with guard column).”
# hot flashes = settings: DES 1 mg per day, cited from earlier work
# [6] = patients receiving 5 mg of DES per day, oral; cited from earlier work
# [7] = PEP group, 915 men, median follow-up 27 months
molecule,measurement,setting,value
polyoestradiol phosphate [PEP],non-fatal cardiovascular events: heart failure,[1]; [7],4.4%
same,non-fatal cardiovascular events: ischemic heart disease,[1]; [7],3.7%
same,cardiovascular or thromboembolic complications,"[1]; phase I, intramuscular, 12 patients, median 12.9 months",did not cause any
same,Antithrombin III activity,coagulation factors,significant decrease
same,Factor VII,coagulation factors,no change
same,Fibrinogen,coagulation factors,unchanged
"C[C@]12CC[C@@H]3c4ccc(O)cc4CC[C@H]3[C@@H]1CC[C@@H]2O [transdermal estradiol, estradiol]",F1.2,coagulation factors,did not affect
"CCC(=C(CC)c1ccc(O)cc1)c1ccc(O)cc1 [DES, 4-[4-(4-hydroxyphenyl)hex-3-en-3-yl]phenol]",urinary N-telopeptide levels (marker for bone turnover),[2],significantly lower
same,[testosterone],[3],143 pg/mlI
same,concentration at 1 h,[4],1.93 ng/mL
same,concentration at 1 h,[5]; no β-glucuronidase,0.089 ng/mL
same,concentration at 1 h,[5]; β-glucuronidase sample prep,1.48 ng/mL
same,patients with significant improvement of hot flashes,hot flashes; remaining patients,14%
same,patients with resolution of hot flashes,hot flashes,86%
same,"increase in non-cancer related deaths, mostly cardiovascular",[6],36%

# Source: patent publication US20100016445A1, “TRANSDERMAL DIETHYLSTILBESTROL FOR TREATING PROSTATE CANCER” (Oregon Health and Science University, priority 2006, published 2010)
